Experimental data: US8227406B2, “Antimicrobial peptides” (Dermagen AB, priority 2006, dated 2012)
Where “and” joins values, the source holds several entries; their conditions need not be identical. Identical values can stand only once. Where no end group is shown, it is not given here.

Legend:
[1] = system: Candida albicans ATCC90028; experiment: Radial diffusion assay (RDA), C. albicans; type: cell-based; parameters: unit not given here; details: for RDA Mean, C. albicans / RDA Data (single replicates), C. albicans: Table 1c; for RDA Data (single replicates), C. albicans: individual values
Method: (§1) Peptides. Peptides were from Sigma-Genosys, generated by a peptide synthesis platform (PEPscreen®, Custom Peptide Libraries, SigmaGenosys). Yield was ˜1-6 mg, and peptide length 20 amino acids. MALDI-ToF Mass Spectrometry was perfomed on these peptides. Average Crude Purity of 20mers was ˜60%. Peptides were supplied lyophilized and in a 96-well tube rack. Prior to biological testing the PEPscreen peptides were diluted in dH2O (5 mM stock), and stored at −20 C. This stock solution was used for the subsequent experiments.
(§2) Eschericia coli ATCC25922, Staphylococcus aureus ATCC29213, and the fungal isolate Candida albicans ATCC90028 were obtained from the Department of Bacteriology, Lund University Hospital.
(§3) Radial diffusion assays (RDA) were performed essentially as described earlier (Lehrer, R. I., Rosenman, M., Harwig, S. S., Jackson, R. & Eisenhauer, P. (1991) Ultrasensitive assays for endogenous antimicrobial polypeptides, J Immunol Methods. 137, 167-73). Briefly, bacteria (E. coli, S. aureus) or fungi (C. albicans) were grown to midlogarithmic phase in 10 ml of full-strength (3% w/v) trypticase soy broth (TSB) (Becton-Dickinson, Cockeysville, Md.). The microorganisms were washed once with 10 mM Tris, pH 7.4. 4×10^6 bacterial cfu or 1×10^5 fungal cfu was added to 5 ml of the underlay agarose gel, consisting of 0.03% (w/v) TSB, 1% (w/v) low-electroendoosmosistype (Low-EEO) agarose (Sigma, St Louise Mo.) and a final concentration of 0.02% (v/v) Tween 20 (Sigma). The underlay was poured into a Ø 85 mm petri dish. After agarose solidified, 4 mm-diameter wells were punched and 6 μl of test sample was added to each well. Plates were incubated at 37° C. for 3 hours to allow diffusion of the peptides. The underlay gel was then covered with 5 ml of molten overlay (6% TSB and 1% Low-EEO agarose in dH2O). Antimicrobial activity of a peptide is visualized as a clear zone around each well after 18-24 hours of incubation at 37° C. for bacteria and 28° C. for Candida albicans. Other examples of peptides that were screened and found to show an increased effect against the above mentioned microorgansism are listed below. Some of the results are found in table 1c showing the effects against C. albicans, table 1d E. coli and table 1e S. aureus.

[2] = system: Staphylococcus aureus ATCC29213; experiment: Radial diffusion assay (RDA), S. aureus; type: cell-based; parameters: Data (RDA antimicrobial activity, single replicates) / Mean (RDA antimicrobial activity): unit not given here; details: for Data (RDA antimicrobial activity, single replicates) / Mean (RDA antimicrobial activity): S. aureus; for Data (RDA antimicrobial activity, single replicates): individual replicate; for Mean (RDA antimicrobial activity): mean of 3; for RDA values (mm) S. aureus ATCC 29213: Table 1b, 10 mM Tris Hcl (pH 7.4)
Method: as §1, §2, §3

[3] = system: Eschericia coli ATCC25922; experiment: Radial diffusion assay (RDA), E. coli; type: cell-based, Escherichia coli; parameters: Data (RDA antimicrobial activity, single replicates) / Mean (RDA antimicrobial activity): unit not given here; details: for Data (RDA antimicrobial activity, single replicates) / Mean (RDA antimicrobial activity): E. coli; for Data (RDA antimicrobial activity, single replicates): individual replicate; for Mean (RDA antimicrobial activity): mean of 3; for RDA values (mm) E. coli ATCC 25922: Table 1b, 10 mM Tris Hcl (pH 7.4)
Method: as §1, §2, §3

In the case of “GKR-22: growth factor derived peptide, untagged parent of GKR22WWW; sequence not printed (GKRKKKGKGLGKKRDPCLRKYK; listed as Homo sapiens)”, the “RDA Mean, C. albicans” value ([1]; peptide 0.1 μM) is reported as 0.00, the “RDA Data (single replicates), C. albicans” value (“RDA Data (single replicates)” for short) ([1]; peptide 0.1 μM) is reported as 0.00 and the “RDA Mean, C. albicans” value ([1]; peptide 0.5 μM) is reported as 0.00. The “RDA Data (single replicates)” value ([1]; peptide 0.5 μM) was 0.00, the “RDA Mean, C. albicans” value ([1]; peptide 1 μM) was 0.00 and the “RDA Data (single replicates)” value ([1]; peptide 1 μM) was 0.00. The “RDA Mean, C. albicans” value ([1]; peptide 5 μM) was 0.00, the “RDA Data (single replicates)” value ([1]; peptide 5 μM) was 0.00 and the “RDA Mean, C. albicans” value ([1]; peptide 10 μM) was 0.00. The “RDA Data (single replicates)” value ([1]; peptide 10 μM) was 0.00, the “RDA Mean, C. albicans” value ([1]; peptide 50 μM) was 1.04 and the “RDA Data (single replicates)” value ([1]; peptide 50 μM) was 1.04 and 1.08 and 1.01. The “RDA Mean, C. albicans” value ([1]; peptide 100 μM) was 3.16, the “RDA Data (single replicates)” value ([1]; peptide 100 μM) was 3.66 and 3.31 and 2.50 and the “Data (RDA antimicrobial activity, single replicates)” value ([2]; peptide 0.1 μM) was 0. The “Mean (RDA antimicrobial activity)” value ([2]; peptide 0.1 μM) was 0.00, the “Data (RDA antimicrobial activity, single replicates)” value ([2]; peptide 0.5 μM) was 0 and the “Mean (RDA antimicrobial activity)” value ([2]; peptide 0.5 μM) was 0.00. For the same substance, the “Data (RDA antimicrobial activity, single replicates)” value ([2]; peptide 1 μM) was 0.4 and 0.26 and 0.25, the “Mean (RDA antimicrobial activity)” value ([2]; peptide 1 μM) was 0.30 and the “Data (RDA antimicrobial activity, single replicates)” value ([2]; peptide 5 μM) was 1.87 and 1.67 and 2.03. The “Mean (RDA antimicrobial activity)” value ([2]; peptide 5 μM) was 1.86, the “Data (RDA antimicrobial activity, single replicates)” value ([2]; peptide 10 μM) was 2.37 and 2.46 and 1.95 and the “Mean (RDA antimicrobial activity)” value ([2]; peptide 10 μM) was 2.26. For the same substance, the “Data (RDA antimicrobial activity, single replicates)” value ([2]; peptide 50 μM) was 3.03 and 3.09 and 2.96, the “Mean (RDA antimicrobial activity)” value ([2]; peptide 50 μM) was 3.03 and the “Data (RDA antimicrobial activity, single replicates)” value ([2]; peptide 100 μM) was 3.88 and 3.94 and 3.07. The “Mean (RDA antimicrobial activity)” value ([2]; peptide 100 μM) was 3.63, the “Data (RDA antimicrobial activity, single replicates)” value ([3]; peptide 0.1 μM) was 0 and the “Mean (RDA antimicrobial activity)” value ([3]; peptide 0.1 μM) was 0.00. For the same substance, the “Data (RDA antimicrobial activity, single replicates)” value ([3]; peptide 0.5 μM) was 0, the “Mean (RDA antimicrobial activity)” value ([3]; peptide 0.5 μM) was 0.00 and the “Data (RDA antimicrobial activity, single replicates)” value ([3]; peptide 1 μM) was 0. The “Mean (RDA antimicrobial activity)” value ([3]; peptide 1 μM) was 0.00, the “Data (RDA antimicrobial activity, single replicates)” value ([3]; peptide 5 μM) was 1.88 and 1.85 and 2.07 and the “Mean (RDA antimicrobial activity)” value ([3]; peptide 5 μM) was 1.93. For the same substance, the “Data (RDA antimicrobial activity, single replicates)” value ([3]; peptide 10 μM) was 2.07 and 3.47 and 2.74, the “Mean (RDA antimicrobial activity)” value ([3]; peptide 10 μM) was 2.76 and the “Data (RDA antimicrobial activity, single replicates)” value ([3]; peptide 50 μM) was 3.68 and 3.65 and 3.61. For the same substance, the “Mean (RDA antimicrobial activity)” value ([3]; peptide 50 μM) was 3.65, the “Data (RDA antimicrobial activity, single replicates)” value ([3]; peptide 100 μM) was 4.5 and 5.24 and 4.19 and the “Mean (RDA antimicrobial activity)” value ([3]; peptide 100 μM) was 4.64.
For GKRKKKGKGLGKKRDPCLRKYKWWW [GKR-22-WWW], the “RDA Mean, C. albicans” value ([1]; peptide 0.1 μM) was 0.00, the “RDA Data (single replicates)” value ([1]; peptide 0.1 μM) was 0.00 and the “RDA Mean, C. albicans” value ([1]; peptide 0.5 μM) was 0.00. For the same substance, the “RDA Data (single replicates)” value ([1]; peptide 0.5 μM) was 0.00, the “RDA Mean, C. albicans” value ([1]; peptide 1 μM) was 0.00 and the “RDA Data (single replicates)” value ([1]; peptide 1 μM) was 0.00. For the same substance, the “RDA Mean, C. albicans” value ([1]; peptide 5 μM) was 0.00, the “RDA Data (single replicates)” value ([1]; peptide 5 μM) was 0.00 and the “RDA Mean, C. albicans” value ([1]; peptide 10 μM) was 0.66. The “RDA Data (single replicates)” value ([1]; peptide 10 μM) was 0.50 and 0.94 and 0.54, the “RDA Mean, C. albicans” value ([1]; peptide 50 μM) was 1.65 and the “RDA Data (single replicates)” value ([1]; peptide 50 μM) was 1.95 and 1.59 and 1.40. For the same substance, the “RDA Mean, C. albicans” value ([1]; peptide 100 μM) was 5.55, the “RDA Data (single replicates)” value ([1]; peptide 100 μM) was 5.30 and 5.74 and 5.62 and the “Data (RDA antimicrobial activity, single replicates)” value ([2]; peptide 0.1 μM) was 0. For the same substance, the “Mean (RDA antimicrobial activity)” value ([2]; peptide 0.1 μM) was 0.00, the “Data (RDA antimicrobial activity, single replicates)” value ([2]; peptide 0.5 μM) was 0.36 and 0.49 and 0.6 and the “Mean (RDA antimicrobial activity)” value ([2]; peptide 0.5 μM) was 0.48. For the same substance, the “Data (RDA antimicrobial activity, single replicates)” value ([2]; peptide 1 μM) was 3.6 and 3.67 and 3.78, the “Mean (RDA antimicrobial activity)” value ([2]; peptide 1 μM) was 3.68 and the “Data (RDA antimicrobial activity, single replicates)” value ([2]; peptide 5 μM) was 3.87 and 4.57 and 4.53. The “Mean (RDA antimicrobial activity)” value ([2]; peptide 5 μM) was 4.32, the “Data (RDA antimicrobial activity, single replicates)” value ([2]; peptide 10 μM) was 6.04 and 6.87 and 5.73 and the “Mean (RDA antimicrobial activity)” value ([2]; peptide 10 μM) was 6.21. For the same substance, the “Data (RDA antimicrobial activity, single replicates)” value ([2]; peptide 50 μM) was 7.12 and 8.12 and 7.41, the “Mean (RDA antimicrobial activity)” value ([2]; peptide 50 μM) was 7.55 and the “Data (RDA antimicrobial activity, single replicates)” value ([2]; peptide 100 μM) was 7.4 and 8.78 and 8.05. For the same substance, the “Mean (RDA antimicrobial activity)” value ([2]; peptide 100 μM) was 8.08, the “Data (RDA antimicrobial activity, single replicates)” value ([3]; peptide 0.1 μM) was 0 and the “Mean (RDA antimicrobial activity)” value ([3]; peptide 0.1 μM) was 0.00. For the same substance, the “Data (RDA antimicrobial activity, single replicates)” value ([3]; peptide 0.5 μM) was 0.14 and 0.85 and 0.17, the “Mean (RDA antimicrobial activity)” value ([3]; peptide 0.5 μM) was 0.39 and the “Data (RDA antimicrobial activity, single replicates)” value ([3]; peptide 1 μM) was 2.74 and 3.2 and 2.59. For the same substance, the “Mean (RDA antimicrobial activity)” value ([3]; peptide 1 μM) was 2.84, the “Data (RDA antimicrobial activity, single replicates)” value ([3]; peptide 5 μM) was 2.97 and 3.58 and 3.2 and the “Mean (RDA antimicrobial activity)” value ([3]; peptide 5 μM) was 3.25. For the same substance, the “Data (RDA antimicrobial activity, single replicates)” value ([3]; peptide 10 μM) was 5.67 and 5.68 and 5.48, the “Mean (RDA antimicrobial activity)” value ([3]; peptide 10 μM) was 5.61 and the “Data (RDA antimicrobial activity, single replicates)” value ([3]; peptide 50 μM) was 6.61 and 6.64 and 6.47. The “Mean (RDA antimicrobial activity)” value ([3]; peptide 50 μM) was 6.57, the “Data (RDA antimicrobial activity, single replicates)” value ([3]; peptide 100 μM) was 7.8 and 8.04 and 8.12 and the “Mean (RDA antimicrobial activity)” value ([3]; peptide 100 μM) was 7.99.
HKHGHLHLKHKNKGKKNGKH [Peptide 36] was tested, and the “Candida albicans ATCC 90028 Mean” value ([1]; Table 1a, RDA clear zone) was 0.000, the “S. aureus ATCC 29213 Mean” value ([2]; Table 1a, RDA clear zone) was 0.000 and the “E.coli ATCC 25922 Mean, Ingrowth* counted” value ([3]; Table 1a, RDA clear zone, ingrowth counted) was 0.000. For the same substance, the “E.coli ATCC 25922 Mean, Ingrowth not counted” value ([3]; Table 1a, RDA clear zone, ingrowth not counted) was 0.000.
WWWKNKGKKNGK [Peptide T34] was tested, and the “RDA values (mm) S. aureus ATCC 29213” value [2] was 0.43 mm and the “RDA values (mm) E. coli ATCC 25922” value [3] was 4.94 mm.
In the case of WWWKNKGKKNGKH [Peptide T33], the “RDA values (mm) S. aureus ATCC 29213” value [2] is reported as 2.20 mm and the “RDA values (mm) E. coli ATCC 25922” value [3] is reported as 7.95 mm.
For WWWSNSGSSNGSH [Peptide T45], the “RDA values (mm) S. aureus ATCC 29213” value [2] was 0.00 mm and the “RDA values (mm) E. coli ATCC 25922” value [3] was 0.00 mm.
